Assay results reported in patent publication US9624170B2, “4-(piperrazin-1-yl)-pyrrolidin-2-one compounds as monoacylglycerol lipase (MAGL) inhibitors” (TAKEDA PHARMACEUTICAL COMPANY LIMITED, priority 2013, dated 2017).

molecular target: T1, human MAGL (His-hMAGL) (Homo sapiens, UniProt Q99685); test: Measurement of MAGL inhibitory activity by mass spectrometry; assay type: biochemical; conditions: 10 μM test compound; substrate 2-arachidonylglycerol, arachidonic acid by RapidFire-mass spectrometry
T1 construct: made in house; host or cells: Escherichia coli BL21(DE3)
T1 sequence (Q99685 1-303): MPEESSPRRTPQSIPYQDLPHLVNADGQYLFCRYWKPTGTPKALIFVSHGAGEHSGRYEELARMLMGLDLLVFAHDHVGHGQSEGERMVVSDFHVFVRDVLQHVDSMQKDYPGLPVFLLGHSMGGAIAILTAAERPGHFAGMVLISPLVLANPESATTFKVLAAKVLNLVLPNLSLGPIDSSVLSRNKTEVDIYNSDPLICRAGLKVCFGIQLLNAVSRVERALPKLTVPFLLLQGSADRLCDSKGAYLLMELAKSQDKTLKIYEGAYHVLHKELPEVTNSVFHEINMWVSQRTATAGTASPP
Outline: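 His-tagged human MAGL was reacted with 150 μM 2-arachidonylglycerol substrate (stock, added by 5 μL) for 10 min at room temperature, then stopped with formic acid. Arachidonic acid product was quantified by RapidFire–triple-quadrupole MS in negative SRM mode, corrected by arachidonic acid-d8, and converted to percent inhibition.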

Row | inhibition at 10 µM [%] | Compound
1 | 98 | O=C(c1nccs1)N1CCN(C2CC(=O)N(c3ccc4c(c3)CCN4c3ncc(C(F)(F)F)cn3)C2)CC1 (stereo not drawn) [Example 141, 4-(4-(1,3-Thiazol-2-ylcarbonyl)piperazin-1-yl)-1-(1-(5-(trifluoromethyl)pyrimidin-2-yl)-2,3-dihydro-1H-indol-5-yl)pyrrolidin-2-one]
2 | 99 | O=C(c1nccs1)N1CCN(C2CC(=O)N(c3cccc(-c4cnn5ccccc45)c3)C2)CC1 (stereo not drawn) [Example 106, 1-(3-(pyrazolo[1,5-a]pyridin-3-yl)phenyl)-4-(4-(1,3-thiazol-2-ylcarbonyl)piperazin-1-yl)pyrrolidin-2-one]
3 | 98 | O=C(c1nccs1)N1CCN(C2CC(=O)N(c3ccc4c(cnn4Cc4ccc(F)cc4)c3)C2)CC1 (stereo not drawn) [Example 114, 1-(1-(4-Fluorobenzyl)-1H-indazol-5-yl)-4-(4-(1,3-thiazol-2-ylcarbonyl)piperazin-1-yl)pyrrolidin-2-one]
4 | 97 | CC(=O)Nc1ccc(-c2cccc(N3CC(N4CCN(C(=O)c5nccs5)CC4)CC3=O)c2)cc1 (stereo not drawn) [Example 97, N-(3′-(2-oxo-4-(4-(1,3-thiazol-2-ylcarbonyl)piperazin-1-yl)pyrrolidin-1-yl)biphenyl-4-yl)acetarnide]
5 | 101 | Cc1cccc(C)c1-c1cccc(N2CC(N3CCN(C(=O)c4nccs4)CC3)CC2=O)c1 (stereo not drawn) [Example 132, 1-(2′,6′-dimethylbiphenyl-3-yl)-4-(4-(1,3-thiazol-2-ylcarbonyl)piperazin-1-yl)pyrrolidin-2-one]

same assay, conditions: MAGL inhibitory rate, test compound 10 μM, His-hMAGL, substrate 2-arachidonylglycerol, RapidFire-mass spectrometry

Row | inhibition at 10 µM [%] | Compound
6 | 97 | O=C(c1nccs1)N1CCN(C2CC(=O)N(c3ccc4nc(-c5ccccc5)oc4c3)C2)CC1 (stereo not drawn) [Example 387, 1-(2-phenyl-1,3-benzoxazol-6-yl)-4-(4-(1,3-thiazol-2-ylcarbonyl)piperazin-1-yl)pyrrolidin-2-one]
7 | 99 | O=C(c1cscn1)N1CCN(C2CC(=O)N(c3cccc(-c4ccccc4Cl)c3)C2)CC1 (stereo not drawn) [Example 232, 1-(2′-Chlorobiphenyl-3-yl)-4-(4-(1,3-thiazol-4-ylcarbonyl)piperazin-1-yl)pyrrolidin-2-one (optical isomer)]
8 | 103 | O=C(c1nccs1)N1CCN(C2CC(=O)N(c3cccc(-c4nsc5ccccc45)c3)C2)CC1 (stereo not drawn) [Example 334, 1-(3-(1,2-benzothiazol-3-yl)phenyl)-4-(4-(1,3-thiazol-2-ylcarbonyl)piperazin-1-yl)pyrrolidin-2-one]
9 | 98 | O=C(c1nccs1)N1CCN([C@@H]2CC(=O)N(c3ccc4c(ccn4-c4ccnc(C(F)(F)F)c4)c3)C2)CC1 [Example 246, (4R)-4-(4-(1,3-thiazol-2-ylcarbonyl)piperazin-1-yl)-1-(1-(2-(trifluoromethyl)pyridin-4-yl)-1H-indol-5-yl)pyrrolidin-2-one]
10 | 96 | Cc1ncccc1-c1cc(N2CC(N3CCN(c4ncccn4)CC3)CC2=O)ccc1F (stereo not drawn) [Example 404, 1-(4-fluoro-3-(2-methylpyridin-3-yl)phenyl)-4-(4-(pyrimidin-2-yl)piperazin-1-yl)pyrrolidin-2-one]
11 | 100 | O=C(c1nccs1)N1CCN(C2CC(=O)N(c3cccc(-c4c(F)cc(F)cc4F)c3)C2)CC1 (stereo not drawn) [Example 282, 4-(4-(1,3-thiazol-2-ylcarbonyl)piperazin-1-yl)-1-(2′,4′,6′-trifluorobiphenyl-3-yl)pyrrolidin-2-one]
12 | 89 | O=C(c1nccs1)N1CCN(C2CC(=O)N(c3ccc(-c4cccnc4)cc3)C2)CC1 (stereo not drawn) [Example 197, 1-(4-(pyridin-3-yl)phenyl)-4-(4-(1,3-thiazol-2-ylcarbonyl)piperazin-1-yl)pyrrolidin-2-one]
13 | 96 | CC1C(N2CCN(C(=O)c3nccs3)CC2)CC(=O)N1c1ccc(Oc2ccccc2)cc1 (stereo not drawn) [Example 228, 5-Methyl-1-(4-phenoxyphenyl)-4-(4-(1,3-thiazol-2-ylcarbonyl)piperazin-1-yl)pyrrolidin-2-one]
14 | 103 | Cc1ccc(N2CC(N3CCN(C(=O)c4nccs4)CC3)CC2=O)cc1-c1ccccc1 (stereo not drawn) [Example 248, 1-(6-methylbiphenyl-3-yl)-4-(4-(1,3-thiazol-2-ylcarbonyl)piperazin-1-yl)pyrrolidin-2-one]
15 | 100 | O=C(c1ncco1)N1CCN(C2CC(=O)N(c3cccc(-c4cccnc4Cl)c3)C2)CC1 (stereo not drawn) [Example 224, 1-(3-(2-chloropyridin-3-yl)phenyl)-4-(4-(1,3-oxazol-2-ylcarbonyl)piperazin-1-yl)pyrrolidin-2-one]
16 | 101 | Cc1nc2ccccn2c1-c1cccc(N2CC(N3CCN(C(=O)c4nccs4)CC3)CC2=O)c1 (stereo not drawn) [Example 335, 1-(3-(2-methylimidazo[1,2-a]pyridin-3-yl)phenyl)-4-(4-(1,3-thiazol-2-ylcarbonyl)piperazin-1-yl)pyrrolidin-2-one]
17 | 101 | O=C(c1nccs1)N1CCN(C2CC(=O)N(c3cccc(-c4ccc(F)c(Cl)c4)c3)C2)CC1 (stereo not drawn) [Example 284, 1-(3′-chloro-4′-fluorobiphenyl-3-yl)-4-(4-(1,3-thiazol-2-ylcarbonyl)piperazin-1-yl)pyrrolidin-2-one]
18 | 99 | Cc1ncccc1-c1cc(F)cc(N2C[C@H](N3CCN(c4ncccn4)CC3)CC2=O)c1 [Example 426, (4R)-1-(3-Fluoro-5-(2-methylpyridin-3-yl)phenyl)-4-(4-(pyrimidin-2-yl)piperazin-1-yl)pyrrolidin-2-one]
19 | 100 | O=C(c1nccs1)N1CCN([C@@H]2CC(=O)N(c3ccc4c(c3)CCN4c3cc(C(F)(F)F)ncn3)C2)CC1 [Example 385, (4R)-4-(4-(1,3-thiazol-2-ylcarbonyl)piperazin-1-yl)-1-(1-(6-(trifluoromethyl)pyrimidin-4-yl)-2,3-dihydro-1H-indol-5-yl)pyrrolidin-2-one]
20 | 98 | O=C(c1nccs1)N1CCN(C2CC(=O)N(c3ccc4c(c3)CCN4c3ccc(C(F)(F)F)cn3)C2)CC1 (stereo not drawn) [Example 383, 4-(4-(1,3-thiazol-2-ylcarbonyl)piperazin-1-yl)-1-(1-(5-(trifluoromethyl)pyridin-2-yl)-2,3-dihydro-1H-indol-5-yl)pyrrolidin-2-one]
21 | 91 | O=C(O)c1ccc(-c2cccc(N3CC(N4CCN(C(=O)c5nccs5)CC4)CC3=O)c2)cc1 (stereo not drawn) [Example 286, 3′-(2-oxo-4-(4-(1,3-thiazol-2-ylcarbonyl)piperazin-1-yl)pyrrolidin-1-yl)biphenyl-4-carboxylic acid]
22 | 101 | Cc1c(-c2cccc(N3CC(N4CCN(C(=O)c5nccs5)CC4)CC3=O)c2)cnn1C (stereo not drawn) [Example 324, 1-(3-(1,5-dimethyl-1H-pyrazol-4-yl)phenyl)-4-(4-(1,3-thiazol-2-ylcarbonyl)piperazin-1-yl)pyrrolidin-2-one]
23 | 98 | O=C(c1nccs1)N1CCN(C2CC(=O)N(c3cccc(-c4cccc5ccnn45)c3)C2)CC1 (stereo not drawn) [Example 338, 1-(3-(pyrazolo[1,5-a]pyridin-7-yl)phenyl)-4-(4-(1,3-thiazol-2-ylcarbonyl)piperazin-1-yl)pyrrolidin-2-one]
24 | 100 | O=C(c1nccs1)N1CCN(C2CN(c3ccc(Oc4ccccc4)cc3)C(=O)C2F)CC1 (stereo not drawn) [Example 261, 3-Fluoro-1-(4-phenoxyphenyl)-4-(4-(1,3-thiazol-2-ylcarbonyl)piperazin-1-yl)pyrrolidin-2-one]
